Experimental data reported in patent publication US20030092683A1, “Use of tetracyclines as neuro-protective agents and for the treatment of parkinson's disease and related disorders” (priority 2001, published 2003).

System: TH-positive (dopaminergic) neurons in the SNpc
Assay: MPTP-induced neuronal death in vivo, TH-positive neurons by immunohistochemistry
Design: species or system C57BL/6 mice
Conditions: for viable TH-positive neurons in the SNpc: MPTP 20 mg/kg x4 on day 3, analysed 7 days after last MPTP, MPTP without minocycline 37% of control
Method: On day 3 mice were injected with MPTP (20 mg/kg×4). Seven days following the last injection of MPTP, the brains were analyzed by immun histochemistry to detect and quantify tyrosin hydroxylase (TH)-positive neurons.

CN(C)c1ccc(O)c2c1C[C@H]1C[C@H]3[C@H](N(C)C)C(O)=C(C(N)=O)C(=O)[C@@]3(O)C(O)=C1C2=O [minocycline]
viable TH-positive neurons in the SNpc (minocycline 90 mg/kg p.o. daily for nine days): 56 % of control | viable TH-positive neurons in the SNpc, treatment after MPTP (minocycline 120 mg/kg p.o. beginning 4 h after the last MPTP injection, MPTP without minocycline 36% of control, p<0.05): 66 % of control | viable TH-positive neurons in the SNpc (minocycline 120 mg/kg p.o. daily for nine days): 77 % of control
